As usually defined, the IC50 is the midpoint of a concentration-inhibition curve.

Human CD38, sequence (P28907 whole entry): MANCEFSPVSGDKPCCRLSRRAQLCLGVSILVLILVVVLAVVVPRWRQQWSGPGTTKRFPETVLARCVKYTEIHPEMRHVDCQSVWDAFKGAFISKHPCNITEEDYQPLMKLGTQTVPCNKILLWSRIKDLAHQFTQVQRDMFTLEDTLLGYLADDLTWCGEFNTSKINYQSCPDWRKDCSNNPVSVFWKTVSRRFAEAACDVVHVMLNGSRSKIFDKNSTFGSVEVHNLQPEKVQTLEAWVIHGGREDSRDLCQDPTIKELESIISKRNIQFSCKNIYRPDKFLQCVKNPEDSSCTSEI

The target in this test is Human CD38 (Homo sapiens (Human), UniProt P28907). The test can be described thus: Determination of IC50 against human CD38 (CD38 Inhibitor Screening Assay Kit, glycohydrolase activity, fluorescence). The format is biochemical. The following applies: CD38 hydrolase enzyme, 30 min preincubation at room temperature, F-NAD substrate, excitation 300 nm, emission 410 nm; read-out: hCD38 IC50. On the procedure:
CD38 hydrolase buffer (4×) was thawed on ice and 1×CD38 hydrolase buffer was prepared by diluting 4×CD38 hydrolase buffer with water. CD38 hydrolase enzyme was diluted to […] with 1×CD38 hydrolase buffer (10 ng/well). Master mix was prepared by mixing equal volumes of water and CD38 hydrolase buffer (4×) and 10 μl of the mix was added to all the wells. Following master mix addition, 10 μl of the inhibitors and 20 μl of CD38 hydrolase enzyme were added to the wells. For wells designated blank, 10 μl and 20 μl of 1× CD38 hydrolase buffer was added respectively in place of […]. The plate was covered and incubated 30 min at room temperature with slow shaking at 400 rpm. After 30 min incubation, the plate was removed and 10 μl of diluted F-NAD substrate was added to all the wells. The plate is incubated for 10 min, spun at 1200 rpm for 30 secs to remove bubbles and read in Tecan Spark using a fluorometer setting of excitation 300 nm and emission 410 nm. The reading for the blank was subtracted from all the values. IC50 for the test compounds were determined by using Graphpad prism software v7.0.
As for `COCCO[C@H]1CC[C@H](NC(=O)c2cc(Cl)cc(-n3ccnc3)n2)CC1` [Ex. 18, 4-chloro-6-(1H-imidazol-1-yl)-N-((1r,4r)-4-(2-methoxyethoxy)cyclohexyl)-picolinamide], the IC50 was determined as 16 nM.

As for `COCCO[C@H]1CC[C@H](NC(=O)c2cc(C#N)nc(-n3ccnc3)n2)CC1` [Ex. 47, 6-cyano-2-(1H-imidazol-1-yl)-N-((1r,4r)-4-(2-methoxyethoxy)cyclohexyl)pyrimidine-4-carboxamide], the half-maximal inhibitory concentration (IC50) worked out at 31 nM.

On to `C=Cc1cc(C(=O)N[C@H]2CC[C@H](OCCOC)CC2)nc(-n2ccnc2)c1` [Ex. 57, 6-(1H-imidazol-1-yl)-N-((1r,4r)-4-(2-methoxyethoxy)cyclohexyl)-4-vinylpicolinamide], for which the half-maximal inhibitory concentration (IC50) was determined as 40 nM.

`O=C(N[C@H]1CC[C@H](OC(F)F)CC1)c1ccnc(-n2ccnc2)n1` [Ex. 41, N-((1r,4r)-4-(difluoromethoxy)cyclohexyl)-2-(1H-imidazol-1-yl)pyrimidine-4-carboxamide]: the IC50 came out at 16 nM.

Regarding `COCCO[C@H]1CC[C@H](NC(=O)c2cc(C#N)cc(-n3ccnc3)n2)CC1` [Ex. 43, 4-Cyano-6-(1H-imidazol-1-yl)-N-((1r,4r)-4-(2-methoxyethoxy)cyclohexyl)picolinamide], the IC50 was determined as 17 nM.

For the compound `CCn1cc(-c2cc(C(=O)N[C@H]3CC[C@H](OCCOC)CC3)cc(-n3ccnc3)n2)cn1` [Ex. 24, 2-(1-ethyl-1H-pyrazol-4-yl)-6-(1H-imidazol-1-yl)-N-((1r,4r)-4-(2-methoxyethoxy)cyclohexyl)isonicotinamide], the concentration for half-maximal inhibition (IC50) stood at 153 nM.

Turning to `COCCO[C@H]1CC[C@H](NC(=O)c2cc(CO)nc(-n3ccnc3)n2)CC1` [Ex. 49, 6-(hydroxymethyl)-2-(1H-imidazol-1-yl)-N-((1r,4r)-4-(2-methoxyethoxy)cyclohexyl)pyrimidine-4-carboxamide], the half-inhibitory concentration (IC50) was determined as 15 nM.

For the compound `COCCO[C@H]1CC[C@H](NC(=O)c2cc(C(=O)O)nc(-n3ccnc3)n2)CC1` [Ex. 45], the half-inhibitory concentration (IC50) amounted to 28 nM.

Take `COCCO[C@H]1CC[C@H](NC(=O)c2cc(C)cc(-n3ccnc3)n2)CC1` [Ex. 29, 6-(1H-imidazol-1-yl)-N-((1r,4r)-4-(2-methoxyethoxy)cyclohexyl)-4-methylpicolinamide]: the IC50 was 31 nM.

In the case of `Cc1cc(C(=O)N[C@H]2CC[C@H](OC(F)F)CC2)nc(-n2ccnc2)n1` [Ex. 42, N-((1r,4r)-4-(difluoromethoxy)cyclohexyl)-2-(1H-imidazol-1-yl)-6-methylpyrimidine-4-carboxamide], the half-maximal inhibitory concentration (IC50) was 4.8 nM.

Consider `COCCO[C@H]1CC[C@H](NC(=O)c2cc(-c3cncs3)nc(C(F)(F)F)c2)CC1` [Ex. 4, N-((1r,4r)-4-(2-methoxyethoxy)cyclohexyl)-2-(thiazol-5-yl)-6-(trifluoromethyl)isonicotinamide], for which the 50% inhibitory concentration (IC50) turned out to be 3500 nM.

Turning to `COCCO[C@H]1CC[C@H](NC(=O)c2cc(C)nc(-n3ccnc3)n2)CC1` [Ex. 35, 2-(1H-imidazol-1-yl)-N-((1r,4r)-4-(2-methoxyethoxy)cyclohexyl)-6-methylpyrimidine-4-carboxamide], the 50% inhibitory concentration (IC50) came out at 7.4 nM.

Consider `COCCO[C@H]1CC[C@H](NC(=O)c2cc(C(F)(F)F)nc(-n3ccnc3)n2)CC1` [Ex. 36, 2-(1H-imidazol-1-yl)-N-((1r,4r)-4-(2-methoxyethoxy)cyclohexyl)-6-(trifluoromethyl)pyrimidine-4-carboxamide], for which the IC50 came to 39 nM.

For the compound `COCCO[C@H]1CC[C@H](NC(=O)c2cc(-c3cnn(C)c3)cc(-c3cncs3)n2)CC1` [Ex. 8, N-((1r,4r)-4-(2-methoxyethoxy)cyclohexyl)-4-(1-methyl-1H-pyrazol-4-yl)-6-(thiazol-5-yl)picolinamide], the IC50 amounted to 286 nM.

For `COCCO[C@H]1CC[C@H](NC(=O)c2cc(F)cc(-n3ccnc3)n2)CC1` [Ex. 20, 4-fluoro-6-(1H-imidazol-1-yl)-N-((1r,4r)-4-(2-methoxyethoxy)cyclohexyl)picolinamide], the IC50 is 21.5 nM.

For the compound `CCO[C@H]1CC[C@H](NC(=O)c2ccnc(-n3ccnc3)n2)CC1` [Ex. 58, N-((1r,4r)-4-ethoxycyclohexyl)-2-(1H-imidazol-1-yl)pyrimidine-4-carboxamide], the IC50 stood at 16.5 nM.

With `COCCO[C@H]1CC[C@H](NC(=O)c2cc(C(C)O)cc(-n3ccnc3)n2)CC1` (some centres unmarked) [Ex. 38, 4-(1-Hydroxyethyl)-6-(1H-imidazol-1-yl)-N-((1r,4r)-4-(2-methoxyethoxy)cyclohexyl)picolinamide], the IC50 came out at 310 nM.
